Test results reported in the NIST ThermoML archive (doi:10.1021/je0301040).
Numbers after ± are expanded uncertainties.

Assay: xn = mol fraction of the nth substance listed
Settings: Liquid

FC(Cl)(Cl)Cl [trichlorofluoromethane] + FC(F)Cl
mass density (230 K, 25860 kPa, Pycnometric method, x1 = 0.8336): 1641.63 ± 1.8 kg/m3
mass density (230.01 K, 668.5 kPa, Pycnometric method, x1 = 0.8336): 1604.47 ± 2 kg/m3
mass density (230.01 K, 1004 kPa, Pycnometric method, x1 = 0.8336): 1605.02 ± 2 kg/m3
mass density (230.01 K, 2033.3 kPa, Pycnometric method, x1 = 0.8336): 1606.97 ± 2 kg/m3
mass density (230.01 K, 2374.4 kPa, Pycnometric method, x1 = 0.8336): 1607.47 ± 2 kg/m3
mass density (230.01 K, 2689.9 kPa, Pycnometric method, x1 = 0.8336): 1608.01 ± 2 kg/m3
mass density (230.01 K, 3067 kPa, Pycnometric method, x1 = 0.8336): 1608.63 ± 2 kg/m3
mass density (230.01 K, 3637.3 kPa, Pycnometric method, x1 = 0.8336): 1609.58 ± 2 kg/m3
mass density (230.01 K, 12707 kPa, Pycnometric method, x1 = 0.8336): 1623.4 ± 1.9 kg/m3
mass density (230.01 K, 65252 kPa, Pycnometric method, x1 = 0.8336): 1686.03 ± 1.7 kg/m3
mass density (230.02 K, 1691.3 kPa, Pycnometric method, x1 = 0.8336): 1606.39 ± 2 kg/m3
mass density (230.02 K, 38513 kPa, Pycnometric method, x1 = 0.8336): 1657.76 ± 1.8 kg/m3
mass density (230.02 K, 51629 kPa, Pycnometric method, x1 = 0.8336): 1672.95 ± 1.8 kg/m3
mass density (232.01 K, 344.5 kPa, isochoric method, x1 = 0.832): 1585.93 ± 0.49 kg/m3
mass density (232.01 K, 367.9 kPa, isochoric method, x1 = 0.832): 1585.93 ± 0.49 kg/m3
mass density (233.01 K, 1630.1 kPa, isochoric method, x1 = 0.832): 1585.8 ± 0.49 kg/m3
mass density (234.01 K, 2889.9 kPa, isochoric method, x1 = 0.832): 1585.67 ± 0.49 kg/m3
mass density (245.01 K, 363.7 kPa, isochoric method, x1 = 0.832): 1556.16 ± 0.48 kg/m3
mass density (246.5 K, 2106.6 kPa, isochoric method, x1 = 0.832): 1555.98 ± 0.48 kg/m3
mass density (248 K, 3843.5 kPa, isochoric method, x1 = 0.832): 1555.8 ± 0.48 kg/m3
mass density (248 K, 3865.5 kPa, isochoric method, x1 = 0.832): 1555.8 ± 0.48 kg/m3
mass density (248.01 K, 3870.3 kPa, isochoric method, x1 = 0.832): 1555.8 ± 0.48 kg/m3
mass density (249 K, 4990.8 kPa, isochoric method, x1 = 0.832): 1555.68 ± 0.48 kg/m3
mass density (264.5 K, 1262.1 kPa, isochoric method, x1 = 0.832): 1513.38 ± 0.46 kg/m3
mass density (266.5 K, 3302.5 kPa, isochoric method, x1 = 0.832): 1513.15 ± 0.47 kg/m3
mass density (268 K, 4830.1 kPa, isochoric method, x1 = 0.832): 1512.98 ± 0.47 kg/m3
mass density (268 K, 4846.4 kPa, isochoric method, x1 = 0.832): 1512.98 ± 0.47 kg/m3
mass density (269.99 K, 2096.8 kPa, Pycnometric method, x1 = 0.8336): 1502.82 ± 1.9 kg/m3
mass density (269.99 K, 21561 kPa, Pycnometric method, x1 = 0.8336): 1541.21 ± 1.4 kg/m3
mass density (269.99 K, 41933 kPa, Pycnometric method, x1 = 0.8336): 1573.88 ± 1.3 kg/m3
mass density (270 K, 378 kPa, Pycnometric method, x1 = 0.8336): 1498.95 ± 1.9 kg/m3
mass density (270 K, 696 kPa, Pycnometric method, x1 = 0.8336): 1499.67 ± 1.9 kg/m3
mass density (270 K, 1081 kPa, Pycnometric method, x1 = 0.8336): 1500.54 ± 1.9 kg/m3
mass density (270 K, 1383.8 kPa, Pycnometric method, x1 = 0.8336): 1501.23 ± 1.9 kg/m3
mass density (270 K, 1742 kPa, Pycnometric method, x1 = 0.8336): 1502.02 ± 1.9 kg/m3
mass density (270 K, 2410 kPa, Pycnometric method, x1 = 0.8336): 1503.54 ± 1.9 kg/m3
mass density (270 K, 2708.1 kPa, Pycnometric method, x1 = 0.8336): 1504.16 ± 1.9 kg/m3
mass density (270 K, 3130 kPa, Pycnometric method, x1 = 0.8336): 1505.05 ± 1.9 kg/m3
mass density (270 K, 3854.5 kPa, Pycnometric method, x1 = 0.8336): 1506.62 ± 1.9 kg/m3
mass density (270 K, 7625.3 kPa, Pycnometric method, x1 = 0.8336): 1514.59 ± 1.6 kg/m3
mass density (270 K, 14726 kPa, Pycnometric method, x1 = 0.8336): 1528.68 ± 1.8 kg/m3
mass density (270 K, 27467 kPa, Pycnometric method, x1 = 0.8336): 1551.32 ± 1.7 kg/m3
mass density (270 K, 35271 kPa, Pycnometric method, x1 = 0.8336): 1563.81 ± 1.4 kg/m3
mass density (270 K, 48894 kPa, Pycnometric method, x1 = 0.8336): 1583.8 ± 1.3 kg/m3
mass density (270 K, 55535 kPa, Pycnometric method, x1 = 0.8336): 1592.86 ± 1.3 kg/m3
mass density (270 K, 62211 kPa, Pycnometric method, x1 = 0.8336): 1601.52 ± 1.3 kg/m3
mass density (288 K, 932.5 kPa, isochoric method, x1 = 0.832): 1464.29 ± 0.45 kg/m3
mass density (290 K, 2670 kPa, isochoric method, x1 = 0.832): 1464.09 ± 0.45 kg/m3
mass density (293 K, 5258.3 kPa, isochoric method, x1 = 0.832): 1463.78 ± 0.46 kg/m3
mass density (293 K, 5259.5 kPa, isochoric method, x1 = 0.832): 1463.78 ± 0.46 kg/m3
mass density (298.14 K, 1069.1 kPa, Pycnometric method, x1 = 0.8336): 1439.09 ± 1.8 kg/m3
mass density (298.14 K, 1772.4 kPa, Pycnometric method, x1 = 0.8336): 1441.18 ± 1.8 kg/m3
mass density (298.14 K, 2113.1 kPa, Pycnometric method, x1 = 0.8336): 1442.22 ± 1.8 kg/m3
mass density (298.14 K, 2728.2 kPa, Pycnometric method, x1 = 0.8336): 1444.75 ± 1.8 kg/m3
mass density (298.14 K, 3032.4 kPa, Pycnometric method, x1 = 0.8336): 1445.59 ± 1.8 kg/m3
mass density (298.14 K, 21180 kPa, Pycnometric method, x1 = 0.8336): 1490.62 ± 1.6 kg/m3
mass density (298.14 K, 49069 kPa, Pycnometric method, x1 = 0.8336): 1542.62 ± 1.4 kg/m3
mass density (298.14 K, 63135 kPa, Pycnometric method, x1 = 0.8336): 1564.13 ± 1.4 kg/m3
mass density (298.15 K, 390.2 kPa, Pycnometric method, x1 = 0.8336): 1436.97 ± 1.8 kg/m3
mass density (298.15 K, 717.7 kPa, Pycnometric method, x1 = 0.8336): 1438.05 ± 1.8 kg/m3
mass density (298.15 K, 1383.5 kPa, Pycnometric method, x1 = 0.8336): 1440.04 ± 1.8 kg/m3
mass density (298.15 K, 2381.3 kPa, Pycnometric method, x1 = 0.8336): 1443.01 ± 1.8 kg/m3
mass density (298.15 K, 2409.4 kPa, Pycnometric method, x1 = 0.8336): 1443.8 ± 1.8 kg/m3
mass density (298.15 K, 3541.1 kPa, Pycnometric method, x1 = 0.8336): 1447.03 ± 1.8 kg/m3
mass density (298.15 K, 7060.4 kPa, Pycnometric method, x1 = 0.8336): 1456.68 ± 1.7 kg/m3
mass density (298.15 K, 14256 kPa, Pycnometric method, x1 = 0.8336): 1474.84 ± 1.6 kg/m3
